Like-named read-outs stand apart in the source and are kept apart here. Residues, ends and D or L forms follow the SMILES beside them.
How the values were obtained:
Type in all cases: cell-based
[1] = molecular target: GPR55 (Homo sapiens, UniProt Q9Y2T6); assay: Real-time receptor internalization (TR-FRET), concentration-response; parameters: hIL-2Ra signal peptide (N); expressed in transfected cells
Method: 48 hr prior to parallel assaying, SNAP-tagged oGPCR cells were plated (10,000 cells/well) in fibronectin-coated 384-well Epic biosensor microplates (Corning) and poly-D-lysine coated white 384-well plates (for internalization assays). SNAP- GLP-1 receptor was plated alongside orphan receptor cells as an internal assay control for internalization assays. Receptor-expression was induced with 0.1 μg/ml doxycycline.
A TR-FRET real-time internalization assay was used to examine peptide-dependent changes in orphan receptor localization as described previously ([Foster and Bräuner-Osborne, 2018]). Surface-expressed SNAP-tagged receptors were labeled with a cell-impermeable luminescent terbium cryptate (100 nM SNAP Lumi4-Tb; Cisbio, France) for 1 hr at 37°C. Cells were washed to remove excess terbium and incubated with fluorescein-O-acetic acid (100 μM; Sigma Aldrich) for 5 min at 37°C. Peptides were added as for DMR assays, and internalization responses were recorded for 60 min at 37°C using an EnVision 2104 Multimode plate reader (PerkinElmer). 100 nM GLP-1 was used as a positive control for SNAP-GLP1R internalization. Real-time internalization responses were calculated based on TR-FRET (excitation 340 nm; emission 520 nm and 615 nm), and were expressed as the ratio between donor (terbium) and acceptor (fluorescein) emission. For peptide screening analysis (both DMR and internalization assays), we calculated the area under the curve from the real-time traces. […] Validation experiments for receptor internalization were performed as above. Internalization data was processed in MS-Excel and area under the curve was used to generate concentration-response curves using GraphPad Prism 7.0. Data represent mean ± standard error of the mean (SEM) from at least 3 biologically independent experiments.

[2] = molecular target: T1, BB3 (Homo sapiens, UniProt P32247); assay: IP1 accumulation (Gq/11), HTRF; conditions: receptor BB3; mean, SEM and n (2-4); read-out: IP1 accumulation assays pEC50 (converted)
T1 construct: hIL-2Ra signal peptide (N); expressed in transfected cells
T1 sequence (P32247 2-399 limits assumed): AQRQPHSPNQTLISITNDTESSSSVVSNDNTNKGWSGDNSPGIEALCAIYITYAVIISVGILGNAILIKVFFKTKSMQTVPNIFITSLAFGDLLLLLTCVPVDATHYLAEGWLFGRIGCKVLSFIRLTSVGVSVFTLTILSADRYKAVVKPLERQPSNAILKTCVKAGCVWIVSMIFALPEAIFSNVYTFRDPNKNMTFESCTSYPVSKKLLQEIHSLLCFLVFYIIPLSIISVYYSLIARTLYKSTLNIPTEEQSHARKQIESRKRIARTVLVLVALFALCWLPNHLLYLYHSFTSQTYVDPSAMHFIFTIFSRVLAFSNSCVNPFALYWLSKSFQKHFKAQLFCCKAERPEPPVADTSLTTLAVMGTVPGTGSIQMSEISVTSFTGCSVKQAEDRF

[3] = molecular target: T2, GPR1 (Homo sapiens, UniProt P46091); assay: β-arrestin recruitment (PathHunter); conditions: receptor GPR1; mean, SEM and n (2-3); read-out: b-arrestin recruitment assays (PathHunter) pEC50 (converted)
T2 sequence (P46091 1-355): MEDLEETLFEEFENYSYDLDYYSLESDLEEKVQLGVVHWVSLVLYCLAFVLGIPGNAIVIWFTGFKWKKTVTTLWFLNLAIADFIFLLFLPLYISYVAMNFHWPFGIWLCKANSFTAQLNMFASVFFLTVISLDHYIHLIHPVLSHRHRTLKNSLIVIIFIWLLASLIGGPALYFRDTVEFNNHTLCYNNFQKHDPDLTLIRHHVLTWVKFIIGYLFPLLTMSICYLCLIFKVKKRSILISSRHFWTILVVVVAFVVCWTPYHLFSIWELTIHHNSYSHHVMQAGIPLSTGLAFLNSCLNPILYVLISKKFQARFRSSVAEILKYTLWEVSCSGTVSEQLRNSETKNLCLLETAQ
Method: PathHunter eXpress Assays (DiscoverX) were performed in 384-well format according to the manufacturer’s recommendations. GPR1 cells were incubated with peptides for 90 min and luminescence measured using an EnSpire 2300 Multimode plate reader (PerkinElmer).

[4] = molecular target: T2, GPR1; assay: β-arrestin recruitment (Tango), validation; parameters: host or cells: HTLA cells (HEK293-derived); conditions: receptor GPR1; mean, SEM and n (2-3); read-out: b-arrestin recruitment assays (Tango) pEC50 (converted)
[5] = molecular target: T1, BB3; assay: Dynamic mass redistribution (DMR), concentration-response; conditions: receptor BB3; mean, SEM and n (3); read-out: DMR assays pEC50 (converted)
[6] = receptor GPR55, mean, SEM and n (3-4), read-out: Internalization assays pEC50 (converted)

Sequence of GPR55 (Q9Y2T6 2-319 limits assumed): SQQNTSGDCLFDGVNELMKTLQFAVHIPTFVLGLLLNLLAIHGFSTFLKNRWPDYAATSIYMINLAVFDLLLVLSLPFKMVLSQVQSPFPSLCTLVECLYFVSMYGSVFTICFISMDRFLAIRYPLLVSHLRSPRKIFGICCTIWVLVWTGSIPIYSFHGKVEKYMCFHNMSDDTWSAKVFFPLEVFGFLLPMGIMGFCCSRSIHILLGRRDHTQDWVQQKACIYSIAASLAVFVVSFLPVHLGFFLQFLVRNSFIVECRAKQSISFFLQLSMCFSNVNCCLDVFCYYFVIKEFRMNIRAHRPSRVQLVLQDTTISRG

| Structure (SMILES) | EC50 [1, 6] [µM] | EC50 [2] [µM] | EC50 [3] [µM] | EC50 [4] [µM] | further results |
| --- | --- | --- | --- | --- | --- |
| CSCC[C@H](NC(=O)[C@@H](N)CCC(N)=O)C(=O)N[C@@H](C)C(=O)N[C@H](C(=O)N[C@@H](CCCCN)C(=O)N[C@@H](CCCCN)C(=O)N[C@@H](Cc1ccc(O)cc1)C(=O)N[C@@H](CC(C)C)C(=O)N[C@@H](C)C(=O)N[C@@H](C)C(=O)N[C@H](C(=O)N[C@@H](CC(C)C)C(N)=O)C(C)C)C(C)C [Peptide 168.3] | 0.000219 | – | – | – | – |
| CSCC[C@H](NC(=O)[C@H](CCCCN)NC(=O)[C@@H](NC(=O)[C@H](CC(C)C)NC(=O)[C@@H](NC(=O)[C@@H](NC(=O)CNC(=O)CNC(=O)CNC(=O)[C@H](C)NC(=O)[C@@H]1CCCN1C(=O)[C@H](CC(C)C)NC(=O)[C@@H]1CCCN1C(=O)[C@@H](N)C(C)C)[C@@H](C)O)C(C)C)[C@@H](C)O)C(=O)N[C@@H](Cc1ccc(O)cc1)C(=O)N1CCC[C@H]1C(=O)N[C@@H](CCCNC(=N)N)C(=O)O [Peptide 167.2] (H-VPLPAGGGTVLTKMYPR-OH) | – | 0.525 | 2.29 | 3.02 | – |
| CSCC[C@H](NC(=O)[C@H](CCCNC(=N)N)NC(=O)[C@H](CCCNC(=N)N)NC(=O)[C@H](CCC(=O)O)NC(=O)[C@H](Cc1c[nH]cn1)NC(=O)[C@H](CC(C)C)NC(=O)[C@H](Cc1c[nH]cn1)NC(=O)[C@@H]1CCCN1C(=O)[C@@H](NC(=O)[C@H](CC(C)C)NC(=O)[C@H](CCC(N)=O)NC(=O)[C@H](CC(C)C)NC(=O)[C@H](CC(C)C)NC(=O)[C@@H]1CCCN1C(=O)[C@H](Cc1c[nH]cn1)NC(=O)[C@@H](NC(=O)[C@@H](NC(=O)[C@H](CO)NC(=O)[C@H](CO)NC(=O)[C@@H](NC(=O)[C@@H](NC(=O)[C@H](CC(N)=O)NC(=O)[C@H](CO)NC(=O)[C@H](CCCCN)NC(=O)CNC(=O)[C@H](CC(C)C)NC(=O)[C@H](CCCCN)NC(=O)[C@H](CCC(N)=O)NC(=O)[C@@H](NC(=O)[C@H](CCCCN)NC(=O)[C@H](CO)NC(=O)[C@H](Cc1ccc(O)cc1)NC(=O)[C@H](Cc1c[nH]cn1)NC(=O)[C@H](Cc1ccccc1)NC(=O)[C@H](CC(C)C)NC(=O)[C@@H](N)Cc1ccccc1)[C@@H](C)O)C(C)C)C(C)C)C(C)C)C(C)C)C(C)C)C(=O)O [Peptide 67.2] (H-FLFHYSKTQKLGKSNVVSSVVHPLLQLVPHLHERRM-OH) | – | 1.17 | – | – | EC50 [5]: 38 µM |
| CC[C@H](C)[C@H](NC(=O)[C@H](CC(=O)O)NC(=O)[C@@H](NC(=O)[C@H](Cc1ccc(O)cc1)NC(=O)[C@@H](NC(=O)CNC(=O)[C@H](CC(N)=O)NC(=O)[C@@H](NC(=O)[C@H](CC(C)C)NC(=O)[C@H](Cc1ccc(O)cc1)NC(=O)[C@H](CC(=O)O)NC(=O)[C@H](CC(C)C)NC(=O)[C@H](CCCNC(=N)N)NC(=O)[C@H](CO)NC(=O)[C@H](Cc1ccc(O)cc1)NC(=O)[C@H](CCCNC(=N)N)NC(=O)[C@@H](N)CCCCN)[C@@H](C)CC)[C@@H](C)CC)C(C)C)C(=O)O [Peptide 114] (H-KRYSRLDYLINGIYVDI-OH; N-terminus assumed) | – | – | – | – | EC50 ([1]; read-out: pEC50, internalization, GPR55 (converted)): > 10 µM |
| CC(C)C[C@H](NC(=O)[C@H](CCCCN)NC(=O)[C@H](CCC(N)=O)NC(=O)[C@@H](NC(=O)[C@H](CCCCN)NC(=O)[C@H](CO)NC(=O)[C@H](Cc1ccc(O)cc1)NC(=O)[C@H](Cc1c[nH]cn1)NC(=O)[C@H](Cc1ccccc1)NC(=O)[C@H](CC(C)C)NC(=O)[C@@H](N)Cc1ccccc1)[C@@H](C)O)C(=O)NCC(=O)N[C@@H](CCCCN)C(=O)N[C@@H](CO)C(=O)N[C@@H](CC(N)=O)C(=O)N[C@H](C(=O)N[C@H](C(=O)N[C@@H](CO)C(=O)N[C@@H](CO)C(=O)N[C@H](C(=O)N[C@H](C(=O)N[C@@H](Cc1c[nH]cn1)C(=O)N1CCC[C@H]1C(=O)N[C@@H](CC(C)C)C(=O)N[C@@H](CC(C)C)C(=O)N[C@@H](CCC(N)=O)C(=O)N[C@@H](CC(C)C)C(=O)N[C@H](C(=O)N1CCC[C@H]1C(=O)N[C@@H](Cc1c[nH]cn1)C(=O)N[C@@H](CC(C)C)C(=O)N[C@@H](Cc1c[nH]cn1)C(=O)N[C@@H](CCC(=O)O)C(=O)O)C(C)C)C(C)C)C(C)C)C(C)C)C(C)C [Peptide 67.1] (H-FLFHYSKTQKLGKSNVVSSVVHPLLQLVPHLHE-OH) | – | 4.27 | – | – | EC50 [5]: 32.4 µM |
| CC(C)C[C@H](NC(=O)[C@@H](NC(=O)[C@H](C)NC(=O)[C@H](C)NC(=O)[C@H](CC(C)C)NC(=O)[C@@H](N)Cc1ccc(O)cc1)C(C)C)C(N)=O [Peptide 168.2] (H-YLAAVL-NH2) | 20.4 | – | – | – | – |
| CC(C)C[C@H](NC(=O)[C@H](CCCNC(=N)N)NC(=O)[C@H](CC(=O)O)NC(=O)[C@H](CC(C)C)NC(=O)[C@@H]1CCCN1C(=O)[C@H](CO)NC(=O)CNC(=O)[C@H](Cc1ccccc1)NC(=O)CNC(=O)[C@H](CO)NC(=O)[C@H](Cc1ccccc1)NC(=O)[C@@H](N)CO)C(=O)N[C@@H](CO)C(=O)N[C@@H](C)C(=O)NCC(=O)N[C@@H](CO)C(=O)N[C@H](C(=O)N[C@@H](CC(=O)O)C(=O)N[C@@H](Cc1c[nH]cn1)C(=O)N[C@@H](CCCCN)C(N)=O)C(C)C [Peptide 141.1] (H-SFSGFGSPLDRLSAGSVDHK-NH2) | – | – | 14.1 | 14.5 | – |
| CC[C@H](C)[C@H](NC(=O)CNC(=O)[C@H](CC(=O)O)NC(=O)[C@H](CO)NC(=O)[C@@H](N)Cc1c[nH]cn1)C(=O)N[C@@H](Cc1ccccc1)C(=O)N[C@H](C(=O)N[C@@H](CC(=O)O)C(=O)N[C@@H](CO)C(=O)N[C@@H](Cc1ccc(O)cc1)C(=O)N[C@@H](CO)C(=O)N[C@@H](CCCNC(=N)N)C(=O)N[C@@H](Cc1ccc(O)cc1)C(=O)O)[C@@H](C)O [Peptide 168.4] (H-HSDGIFTDSYSRY-OH) | 0.316 | – | – | – | – |
| CC(C)C[C@H](NC(=O)[C@H](CCCNC(=N)N)NC(=O)[C@H](CC(=O)O)NC(=O)[C@H](CC(C)C)NC(=O)[C@@H]1CCCN1C(=O)[C@H](CO)NC(=O)CNC(=O)[C@H](Cc1ccccc1)NC(=O)CNC(=O)[C@H](CO)NC(=O)[C@H](Cc1ccccc1)NC(=O)[C@H](CO)NC(=O)[C@H](CCCNC(=N)N)NC(=O)[C@@H](N)CCCCN)C(=O)N[C@@H](CO)C(=O)N[C@@H](C)C(=O)NCC(=O)N[C@@H](CO)C(=O)N[C@H](C(=O)N[C@@H](CC(=O)O)C(=O)N[C@@H](Cc1c[nH]cn1)C(=O)N[C@@H](CCCCN)C(N)=O)C(C)C [141 resynthesized] (H-KRSFSGFGSPLDRLSAGSVDHK-NH2) | – | – | 0.661 | 5.01 | – |
| CC[C@H](C)[C@H](NC(=O)[C@H](CCCNC(=N)N)NC(=O)[C@H](Cc1c[nH]cn1)NC(=O)[C@H](CO)NC(=O)[C@@H]1CCCN1C(=O)[C@H](CC(=O)O)NC(=O)[C@H](CC(C)C)NC(=O)[C@H](CC(N)=O)NC(=O)[C@H](CCC(N)=O)NC(=O)[C@H](CC(C)C)NC(=O)[C@H](CC(N)=O)NC(=O)[C@H](CCCCN)NC(=O)[C@@H](NC(=O)[C@@H](NC(=O)[C@H](CO)NC(=O)[C@H](CCSC)NC(=O)[C@H](CCCNC(=N)N)NC(=O)CNC(=O)[C@H](CO)NC(=O)[C@@H]1CCCN1C(=O)[C@H](C)NC(=O)[C@@H](N)CCCCN)[C@@H](C)CC)C(C)C)C(=O)N[C@@H](CO)C(=O)N[C@@H](CC(=O)O)C(=O)N[C@@H](CCCNC(=N)N)C(=O)N[C@@H](CC(=O)O)C(=O)N[C@@H](Cc1ccc(O)cc1)C(=O)N[C@@H](CCSC)C(=O)NCC(=O)O [Peptide 194.4] (H-KAPSGRMSIVKNLQNLDPSHRISDRDYMG-OH) | – | – | 0.000224 | 0.0933 | – |
